From patent publication US10485235B2, “Aryloxypyrimidinyl ethers as herbicides” (FMC Corporation, priority 2015, dated 2019)

Assays:
Type in all cases: in vivo
kochia (Kochia scoparia) [1] = assay: Test A preemergence, kochia; details: Preemergence, 0 to 100 scale (0 no effect, 100 complete control)
Procedure, shortened: (§1)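 Pre- and postemergence greenhouse screen in loam–sand soil. Test chemicals were delivered in a non-phytotoxic solvent with surfactant, preemergence as a directed spray onto seeded soil and postemergence onto 2–10 cm seedlings. Injury was judged by eye after ~10 days on a 0–100 scale.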

[2] = test system: barnyardgrass (Echinochloa crus-galli); assay: Test A postemergence, barnyardgrass; details: postemergence, 0 to 100 scale, 0 is no effect, 100 is complete control, approximately 10 days
Procedure, shortened: as §1

corn (Zea mays) = assay: Test A postemergence, corn; details: postemergence, 0 to 100 scale, 0 is no effect, 100 is complete control, approximately 10 days
Procedure, shortened: as §1

rice (Oryza sativa) = assay: Test B flooded paddy test, rice; details: 250 g ai/ha, Flood; visual rating after 13 to 15 days; scale 0 to 100, 0 is no effect, 100 is complete control
Procedure, shortened: (§2)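 2-leaf plants; flood to 3 cm, dose into water, hold depth; greenhouse 13–15 d; visual score 0–100 vs controls; dash = not tested.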

[3] = test system: sedge, umbrella (small-flower umbrella sedge, Cyperus difformis); assay: Test B flooded paddy test, umbrella sedge; details: 250 g ai/ha, Flood; visual rating after 13 to 15 days; scale 0 to 100, 0 is no effect, 100 is complete control
Procedure, shortened: as §2

[4] = test system: ragweed (common ragweed, Ambrosia elatior); assay: Test A postemergence, ragweed; details: postemergence, 0 to 100 scale, 0 is no effect, 100 is complete control, approximately 10 days
Procedure, shortened: as §1

kochia (Kochia scoparia) [5] = assay: Test A postemergence, kochia; details: postemergence, 0 to 100 scale, 0 is no effect, 100 is complete control, approximately 10 days
Procedure, shortened: as §1

[6] = test system: foxtail, giant (giant foxtail, Setaria faberii); assay: Test A postemergence, giant foxtail; details: postemergence, 0 to 100 scale, 0 is no effect, 100 is complete control, approximately 10 days
Procedure, shortened: as §1

[7] = test system: wheat (Triticum aestivum); assay: Test A postemergence, wheat; details: postemergence, 0 to 100 scale, 0 is no effect, 100 is complete control, approximately 10 days
Procedure, shortened: as §1

[8] = test system: pigweed (Amaranthus retroflexus); assay: Test A postemergence, pigweed; details: postemergence, 0 to 100 scale, 0 is no effect, 100 is complete control, approximately 10 days
Procedure, shortened: as §1

[9] = test system: pigweed (Amaranthus retroflexus); assay: Test A preemergence, pigweed; details: Preemergence, 0 to 100 scale (0 no effect, 100 complete control)
Procedure, shortened: as §1

[10] = test system: barnyardgrass (Echinochloa crus-galli); assay: Test A preemergence, barnyardgrass; details: Preemergence, 0 to 100 scale (0 no effect, 100 complete control)
Procedure, shortened: as §1

[11] = test system: foxtail, giant (giant foxtail, Setaria faberii); assay: Test A preemergence, giant foxtail; details: Preemergence, 0 to 100 scale (0 no effect, 100 complete control)
Procedure, shortened: as §1

[12] = test system: barnyardgrass (Echinochloa crus-galli); assay: Test B flooded paddy test, barnyardgrass; details: 250 g ai/ha, Flood; visual rating after 13 to 15 days; scale 0 to 100, 0 is no effect, 100 is complete control
Procedure, shortened: as §2

[13] = test system: ryegrass, Italian (Italian ryegrass, Lolium multiflorum); assay: Test A preemergence, Italian ryegrass; details: Preemergence, 0 to 100 scale (0 no effect, 100 complete control)
Procedure, shortened: as §1

[14] = test system: galium (catchweed bedstraw, Galium aparine); assay: Test A postemergence, galium; details: postemergence, 0 to 100 scale, 0 is no effect, 100 is complete control, approximately 10 days
Procedure, shortened: as §1

[15] = test system: ducksalad (Heteranthera limosa); assay: Test B flooded paddy test, ducksalad; details: 250 g ai/ha, Flood; visual rating after 13 to 15 days; scale 0 to 100, 0 is no effect, 100 is complete control
Procedure, shortened: as §2

[16] = test system: blackgrass (Alopecurus myosuroides); assay: Test A postemergence, blackgrass; details: postemergence, 0 to 100 scale, 0 is no effect, 100 is complete control, approximately 10 days
Procedure, shortened: as §1

[17] = test system: ragweed (common ragweed, Ambrosia elatior); assay: Test A preemergence, ragweed; details: Preemergence, 0 to 100 scale (0 no effect, 100 complete control)
Procedure, shortened: as §1

[18] = test system: ryegrass, Italian (Italian ryegrass, Lolium multiflorum); assay: Test A postemergence, Italian ryegrass; details: postemergence, 0 to 100 scale, 0 is no effect, 100 is complete control, approximately 10 days
Procedure, shortened: as §1

Compound	Plant response rating, Kochia (kochia (Kochia scoparia) [1]; 31 g ai/ha)	Plant response rating, Kochia (kochia (Kochia scoparia) [1]; 125 g ai/ha)	Plant response rating, Barnyardgrass ([2]; 31 g ai/ha)	Plant response rating, Barnyardgrass ([2]; 125 g ai/ha)	Plant response rating, Corn (corn (Zea mays); 31 g ai/ha)	Plant response rating, Corn (corn (Zea mays); 125 g ai/ha)	Plant response rating, Rice (rice (Oryza sativa))	Plant response rating, Sedge, Umbrella [3]	Plant response rating, Ragweed ([4]; 31 g ai/ha)	Plant response rating, Ragweed ([4]; 125 g ai/ha)	Plant response rating, Kochia (kochia (Kochia scoparia) [5]; 31 g ai/ha)	Plant response rating, Kochia (kochia (Kochia scoparia) [5]; 125 g ai/ha)	Plant response rating, Foxtail, Giant ([6]; 31 g ai/ha)	Plant response rating, Foxtail, Giant ([6]; 125 g ai/ha)	Plant response rating, Wheat ([7]; 31 g ai/ha)	Plant response rating, Wheat ([7]; 125 g ai/ha)	Plant response rating, Pigweed ([8]; 31 g ai/ha)	Plant response rating, Pigweed ([8]; 125 g ai/ha)	Plant response rating, Pigweed ([9]; 31 g ai/ha)	Plant response rating, Pigweed ([9]; 125 g ai/ha)	other results
Cc1cccc(Oc2ncc(Cl)cn2)c1OCCCF [Compound 57]	0	20	0	0	0	10	0	30	0	0	0	20	0	10	0	0	10	20	0	60	Plant response rating, Barnyardgrass ([10]; 31 g ai/ha): 0; Plant response rating, Barnyardgrass ([10]; 125 g ai/ha): 20; Plant response rating, Foxtail, Giant ([11]; 31 g ai/ha): 0; Plant response rating, Foxtail, Giant ([11]; 125 g ai/ha): 30; Plant response rating, Barnyardgrass [12]: 0; Plant response rating, Ryegrass, Italian ([13]; 31 g ai/ha): 0; Plant response rating, Ryegrass, Italian ([13]; 125 g ai/ha): 0; Plant response rating, Galium ([14]; 31 g ai/ha): 0; Plant response rating, Galium ([14]; 125 g ai/ha): 0; Plant response rating, Ducksalad [15]: 70; Plant response rating, Blackgrass ([16]; 31 g ai/ha): 0; Plant response rating, Blackgrass ([16]; 125 g ai/ha): 0; Plant response rating, Ragweed ([17]; 31 g ai/ha): 0; Plant response rating, Ragweed ([17]; 125 g ai/ha): 0; Plant response rating, Ryegrass, Italian ([18]; 31 g ai/ha): 0; Plant response rating, Ryegrass, Italian ([18]; 125 g ai/ha): 0
FC(F)(F)CCCOc1c(I)cccc1Oc1ncc(Cl)cn1 [Compound 60]	30	40	30	100	30	30	25	95	0	30	90	90	30	80	0	20	90	90	70	100	Plant response rating, Barnyardgrass ([10]; 31 g ai/ha): 20; Plant response rating, Barnyardgrass ([10]; 125 g ai/ha): 80; Plant response rating, Foxtail, Giant ([11]; 31 g ai/ha): 90; Plant response rating, Foxtail, Giant ([11]; 125 g ai/ha): 90; Plant response rating, Barnyardgrass [12]: 20; Plant response rating, Ryegrass, Italian ([13]; 31 g ai/ha): 0; Plant response rating, Ryegrass, Italian ([13]; 125 g ai/ha): 90; Plant response rating, Galium ([14]; 31 g ai/ha): 70; Plant response rating, Galium ([14]; 125 g ai/ha): 100; Plant response rating, Ducksalad [15]: 100; Plant response rating, Blackgrass ([16]; 31 g ai/ha): 30; Plant response rating, Blackgrass ([16]; 125 g ai/ha): 50; Plant response rating, Ragweed ([17]; 31 g ai/ha): 0; Plant response rating, Ragweed ([17]; 125 g ai/ha): 0; Plant response rating, Ryegrass, Italian ([18]; 31 g ai/ha): 0; Plant response rating, Ryegrass, Italian ([18]; 125 g ai/ha): 70
